Measurements reported in patent US5985630A, “Assay for detecting inhibitors of aminoacyl-tRNA synthetases” (Zeneca Limited, priority 1993, dated 1999).

What was measured:
[1] = target: T1, E. coli ITRS (isoleucyl-tRNA synthetase) (Escherichia coli, UniProt P00956); assay: Colorimetric assay based on valine as substrate (valine-based assay of the invention); assay type: biochemical; conditions: 15 mM valine, 0.75 mM ATP, 37° C., read-out: Concentration giving 50% inhibition (I50)
T1 construct: endogenous in cells; enzyme partially purified in house
T1 sequence (P00956 whole entry): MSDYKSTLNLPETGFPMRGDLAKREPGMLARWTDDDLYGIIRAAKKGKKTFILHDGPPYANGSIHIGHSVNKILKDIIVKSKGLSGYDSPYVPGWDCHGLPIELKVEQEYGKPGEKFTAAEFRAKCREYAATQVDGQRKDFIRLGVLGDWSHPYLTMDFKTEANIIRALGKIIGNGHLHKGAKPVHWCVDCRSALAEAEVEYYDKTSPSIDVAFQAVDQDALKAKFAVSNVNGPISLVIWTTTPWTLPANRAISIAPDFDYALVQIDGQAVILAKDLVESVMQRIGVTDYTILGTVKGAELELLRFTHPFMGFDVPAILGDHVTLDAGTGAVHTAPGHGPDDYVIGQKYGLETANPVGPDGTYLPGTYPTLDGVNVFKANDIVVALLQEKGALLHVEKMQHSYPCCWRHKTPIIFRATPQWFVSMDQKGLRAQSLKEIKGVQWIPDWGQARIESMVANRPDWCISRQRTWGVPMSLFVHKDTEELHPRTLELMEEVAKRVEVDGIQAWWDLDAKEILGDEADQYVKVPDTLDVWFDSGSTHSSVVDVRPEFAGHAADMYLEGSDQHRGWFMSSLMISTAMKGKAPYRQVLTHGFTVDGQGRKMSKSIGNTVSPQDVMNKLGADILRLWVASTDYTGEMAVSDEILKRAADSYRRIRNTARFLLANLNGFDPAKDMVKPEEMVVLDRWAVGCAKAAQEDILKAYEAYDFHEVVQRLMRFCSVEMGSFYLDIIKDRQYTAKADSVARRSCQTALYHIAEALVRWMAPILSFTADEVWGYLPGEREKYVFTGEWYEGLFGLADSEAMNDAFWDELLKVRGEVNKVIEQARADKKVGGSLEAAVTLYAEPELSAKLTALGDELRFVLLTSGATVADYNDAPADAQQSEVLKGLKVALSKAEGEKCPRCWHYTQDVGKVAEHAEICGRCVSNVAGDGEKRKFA
Method: 2. Measurement of ITRS activity using a Colorimetric Assay based on using Valine as Substrate
Incubations were set up in quadruplicate (as above) with a final volume of 200 μl as described below. Stock reagents used in the method were as follows:
(§1) Prepared as described above. The specific activity of the enzyme used in the present example was approximately 145 nM of product formed/minute/mg, and was about 5%-10% active. The enzyme was diluted as appropriate. It will be appreciated that the enzyme amounts in the assay can be adjusted according to the purity of the enzyme used.
(§2) The assay mixture for a final volume of 200 μl was composed of:
The standard assay (in 200 μl) was carried out in quadruplicate in Eppendorf microcentrifuge tubes. The ingredients were pre-incubated for 2-3 minutes at 37° C. and the reaction started by addition of 20 μl of appropriately diluted enzyme extract (as described above).
Thus the final reaction contained reagents in the following concentrations:
0.12 mg of mixed tRNA species from E. coli (as described above) HPLC purified from […] available from by Sigma (UK) Ltd 1 unit/μl of inorganic pyrophosphatase and
an appropriate concentration of ITRS (for example […] of the enzyme as described above).
The samples were incubated at 37° C. for 20-60 minutes. […] The optical absorbance is then measured at a wavelength of 630 nm using a spectrophotometer.

[2] = target: T1, E. coli ITRS (isoleucyl-tRNA synthetase); assay: 3H-isoleucine-based radiolabelled (standard radiometric) assay; assay type: biochemical; conditions: for IC50: standard 3H-isoleucine radiometric assay, 10 μM isoleucine, 1 mM ATP, 37° C., read-out: Concentration giving 50% inhibition (I50); for Mode of inhibition: with respect to the amino acid substrate, Compound 1 at 0, 0.25 μM and 1.0 μM with varying 3H-isoleucine up to 100 μM
Method: 2. Measurement of ITRS Activity using a ^3 H-Isoleucine-Based Radiolabelled Assay
The activity of ITRS during fractionation was monitored using conditions based on the method described by Steinmetz and Weil (7), and as described below. Stock reagents used in the method are as follows:
as §1, §2
The standard assay (in 200 μl) was carried out in quadruplicate in Eppendorf microcentrifuge tubes. The ingredients were preincubated for 2-3 minutes at 37° C., and the reaction started by addition of approximately 20 μl of the appropriately diluted enzyme extract as described above.
The final reaction contained reagents in the following concentrations:
0.1% bovine serum albumin
10 μM Isoleucine containing ^3 H-Ile
The assay was incubated at 37° C. for 20 minutes, and stopped by addition of 50 μl 20% TCA, and the tubes placed on ice.
200 μl of the reaction mixture was pipetted onto 1.5 cm^2 cellulose 3MM filters. The filters were washed (in groups of 4) as follows: 1×10% TCA, 2×5% TCA, and 2×ethanol using fresh wash medium for each set of replicates to avoid cross contamination. The dried filters were placed in 20 ml scintillation vials and the radioactivity counted in 15 ml Optiphase.
The inhibition constants of two compounds were measured and the results compared with the values obtained using the standard ^3 H-isoleucine assay.

Row | Structure (SMILES) | IC50 [1] | IC50 [2] | Mode of inhibition [2] | Mode of inhibition ([2]; listed as compound 1)
1 | CC(=O)C(C)C1OC1CC1COC(CC(C)=CC(=O)O)C(O)C1O (stereo not shown) [Compound 1] | 2000 nM | 109 nM | competitive with respect to isoleucine | competitive with the amino acid
2 | C=COCCOC(=O)C=C(C)CC1OCC(CC2OC2C(C)C(C)O)C(O)C1O (stereo not shown) [Compound 2] | 38 nM | 2.3 nM | competitive with the amino acid | 
